Earlier results as cited in patent US8933122B2, “Use of cationic surfactants as sporicidal agents” (Laboratorios Miret, S.A., priority 2008, dated 2015).

Legend:
[1] = test system: Clostridium perfringens ATCC 77454; details: Gram + Bacteria; cited from earlier work
[2] = test system: Citrobacter freundii ATCC 22636; details: Gram − Bacteria; cited from earlier work
[3] = test system: Proteus mirabilis CECT 170; details: Gram − Bacteria; cited from earlier work
[4] = test system: Salmonella typhimurium ATCC16028; details: Gram − Bacteria; cited from earlier work
[5] = test system: Aureobasidium pullulans ATCC 9348; details: Fungi; cited from earlier work
[6] = test system: Penicillium chrysogenum CECT 2802; details: Fungi; cited from earlier work
[7] = test system: Saccharomyces cerevisiae ATCC 9763; details: Yeast; cited from earlier work

Question: For CCCCCCCCCCCC(=O)N[C@@H](CCCN=C(N)N)C(=O)OCC.Cl [LAE, ethyl ester of the lauramide of the arginine monohydrochloride], which M.I.C. [1] is on record?
Answer: 16 ppm

Question: What about the M.I.C. [2] of the same compound?
Answer: 64 ppm

Question: What about the M.I.C. [3] of the same compound?
Answer: 32 ppm

Question: What about the M.I.C. [4] of the same compound?
Answer: 32 ppm

Question: And the M.I.C. [5]?
Answer: 16 ppm

Question: What about the M.I.C. [6] of the same compound?
Answer: 128 ppm

Question: And the M.I.C. [7]?
Answer: 32 ppm
